Patent US8192962B2, “Processes for detecting toxic substances” (Daikin Industries, Ltd., priority 2001, dated 2012)

Tested on: Genes belonging to other category
Assay: DNA chip mRNA expression in yeast, genes belonging to other category (Table 9)
Assay type: cell-based, Saccharomyces cerevisiae S288C
Procedure, shortened: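 Ratios compare mRNA levels in stressed and control S. cerevisiae. Each toxicant was applied for two hours to log-phase cultures at 25° C. at a sub-lethal, growth-inhibiting level; fluorescent cDNA (Cy3- or Cy5-dUTP) was hybridized to a genome-wide yeast chip for over 12 h at 65° C.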

SMILES: C[S+](C)[O-] [(15), dimethylsulfoxide]
- The level of expressed mRNA in the presence of chemical substance/The level of expressed mRNA in the absence of chemical substance (yeast gene YKL190W): 1.4
- The level of expressed mRNA in the presence of chemical substance/The level of expressed mRNA in the absence of chemical substance (yeast gene YKR014C): 1.4
- The level of expressed mRNA in the presence of chemical substance/The level of expressed mRNA in the absence of chemical substance (yeast gene YLR090W): 0.8
- The level of expressed mRNA in the presence of chemical substance/The level of expressed mRNA in the absence of chemical substance (yeast gene YLR093C): 0.9
- The level of expressed mRNA in the presence of chemical substance/The level of expressed mRNA in the absence of chemical substance (yeast gene YLR118C): 0.8
- The level of expressed mRNA in the presence of chemical substance/The level of expressed mRNA in the absence of chemical substance (yeast gene YLR120C): 2.7
- The level of expressed mRNA in the presence of chemical substance/The level of expressed mRNA in the absence of chemical substance (yeast gene YLR178C): 2.3
- The level of expressed mRNA in the presence of chemical substance/The level of expressed mRNA in the absence of chemical substance (yeast gene YLR250W): 2.6
- The level of expressed mRNA in the presence of chemical substance/The level of expressed mRNA in the absence of chemical substance (yeast gene YLR251W): 0.8
- The level of expressed mRNA in the presence of chemical substance/The level of expressed mRNA in the absence of chemical substance (yeast gene YLR327C): 0.8
- The level of expressed mRNA in the presence of chemical substance/The level of expressed mRNA in the absence of chemical substance (yeast gene YLR356W): 2.8
- The level of expressed mRNA in the presence of chemical substance/The level of expressed mRNA in the absence of chemical substance (yeast gene YLR362W): 1.3
- The level of expressed mRNA in the presence of chemical substance/The level of expressed mRNA in the absence of chemical substance (yeast gene YLR391W): 3.9
- The level of expressed mRNA in the presence of chemical substance/The level of expressed mRNA in the absence of chemical substance (yeast gene YMR004W): 1.3
- The level of expressed mRNA in the presence of chemical substance/The level of expressed mRNA in the absence of chemical substance (yeast gene YMR051C): 1.7
- The level of expressed mRNA in the presence of chemical substance/The level of expressed mRNA in the absence of chemical substance (yeast gene YMR139W): 0.9
- The level of expressed mRNA in the presence of chemical substance/The level of expressed mRNA in the absence of chemical substance (yeast gene YMR219W): 1.7
- The level of expressed mRNA in the presence of chemical substance/The level of expressed mRNA in the absence of chemical substance (yeast gene YMR226C): 2.0
- The level of expressed mRNA in the presence of chemical substance/The level of expressed mRNA in the absence of chemical substance (yeast gene YMR275C): 1.7
- The level of expressed mRNA in the presence of chemical substance/The level of expressed mRNA in the absence of chemical substance (yeast gene YMR276W): 3.3
- The level of expressed mRNA in the presence of chemical substance/The level of expressed mRNA in the absence of chemical substance (yeast gene YNL006W): 0.7
- The level of expressed mRNA in the presence of chemical substance/The level of expressed mRNA in the absence of chemical substance (yeast gene YNL007C): 0.8
- The level of expressed mRNA in the presence of chemical substance/The level of expressed mRNA in the absence of chemical substance (yeast gene YNL015W): 1.4
- The level of expressed mRNA in the presence of chemical substance/The level of expressed mRNA in the absence of chemical substance (yeast gene YNL214W): 0.9
- The level of expressed mRNA in the presence of chemical substance/The level of expressed mRNA in the absence of chemical substance (yeast gene YNL333W): 1.0
- The level of expressed mRNA in the presence of chemical substance/The level of expressed mRNA in the absence of chemical substance (yeast gene YNR010W): 0.8
- The level of expressed mRNA in the presence of chemical substance/The level of expressed mRNA in the absence of chemical substance (yeast gene YNR069C): 1.0
- The level of expressed mRNA in the presence of chemical substance/The level of expressed mRNA in the absence of chemical substance (yeast gene YOL013C): 2.7
- The level of expressed mRNA in the presence of chemical substance/The level of expressed mRNA in the absence of chemical substance (yeast gene YOL164W): 1.0
- The level of expressed mRNA in the presence of chemical substance/The level of expressed mRNA in the absence of chemical substance (yeast gene YOR117W): 1.4
- The level of expressed mRNA in the presence of chemical substance/The level of expressed mRNA in the absence of chemical substance (yeast gene YOR124C): 1.3
- The level of expressed mRNA in the presence of chemical substance/The level of expressed mRNA in the absence of chemical substance (yeast gene YOR132W): 1.5
- The level of expressed mRNA in the presence of chemical substance/The level of expressed mRNA in the absence of chemical substance (yeast gene YOR157C): 1.9
- The level of expressed mRNA in the presence of chemical substance/The level of expressed mRNA in the absence of chemical substance (yeast gene YOR165W): 0.8
- The level of expressed mRNA in the presence of chemical substance/The level of expressed mRNA in the absence of chemical substance (yeast gene YOR181W): 3.4
- The level of expressed mRNA in the presence of chemical substance/The level of expressed mRNA in the absence of chemical substance (yeast gene YOR185C): 1.0
- The level of expressed mRNA in the presence of chemical substance/The level of expressed mRNA in the absence of chemical substance (yeast gene YOR198C): 3.8
- The level of expressed mRNA in the presence of chemical substance/The level of expressed mRNA in the absence of chemical substance (yeast gene YOR259C): 1.3
- The level of expressed mRNA in the presence of chemical substance/The level of expressed mRNA in the absence of chemical substance (yeast gene YOR261C): 1.3
- The level of expressed mRNA in the presence of chemical substance/The level of expressed mRNA in the absence of chemical substance (yeast gene YOR285W): 2.0
- The level of expressed mRNA in the presence of chemical substance/The level of expressed mRNA in the absence of chemical substance (yeast gene YOR288C): 1.8
- The level of expressed mRNA in the presence of chemical substance/The level of expressed mRNA in the absence of chemical substance (yeast gene YOR355W): 3.2
- The level of expressed mRNA in the presence of chemical substance/The level of expressed mRNA in the absence of chemical substance (yeast gene YPL018W): 0.9
- The level of expressed mRNA in the presence of chemical substance/The level of expressed mRNA in the absence of chemical substance (yeast gene YPL089C): 2.6
- The level of expressed mRNA in the presence of chemical substance/The level of expressed mRNA in the absence of chemical substance (yeast gene YPL109C): 1.3
- The level of expressed mRNA in the presence of chemical substance/The level of expressed mRNA in the absence of chemical substance (yeast gene YPL149W): 0.8
- The level of expressed mRNA in the presence of chemical substance/The level of expressed mRNA in the absence of chemical substance (yeast gene YPL154C): 4.0
- The level of expressed mRNA in the presence of chemical substance/The level of expressed mRNA in the absence of chemical substance (yeast gene YPR073C): 0.8
- The level of expressed mRNA in the presence of chemical substance/The level of expressed mRNA in the absence of chemical substance (yeast gene YPR103W): 1.0
- The level of expressed mRNA in the presence of chemical substance/The level of expressed mRNA in the absence of chemical substance (yeast gene YPR108W): 1.3
